Measured values from paper PMC5062114, “Dual-targeting anti-angiogenic cyclic peptides as potential drug leads for cancer therapy” (Scientific Reports, 2016).
Like-named read-outs stand apart in the source and are kept apart here. Bridge positions count the residues as written; N and C are the ends. Square brackets hold non-standard residues; d marks the D form. Ends that are not written are not given here. Peptide text beside a SMILES is read from it.

Columns and labels:
HUVEC = test: cells
Protocol: (§1) HUVECs (human umbilical vein endothelial cells) were cultured in EGM™-2 BulletKit™ supplemented with SingleQuots™ (supplements: growth factors, cytokines, antibiotics; Lonza) and 10% FBS (catalog no. FFBS-500; Scientifix). Both HT-29 and MCF-7 cells were cultured in 10% FBS/DMEM (Dulbecco’s Modified Eagle Medium) with 1% penicillin–streptomycin (5000 U/mL; Life Technologies), whereas PC3 cells (prostate cancer cells) were cultured in 10% FBS/RPMI (Roswell Park Memorial Institute) 1640 with 1% penicillin–streptomycin (5000 U/mL; Life Technologies). All cells were maintained at 37 °C in 5% CO2.
(§2) Cell cytotoxicity and proliferation assays were performed using similar methods to those described by Chan et al.[45]. All cells were maintained using the media conditions described above, and passages two to ten were used for all cell lines. For all cell lines, 5.0 × 10^3 cells/well (100 μL) and 1.5 × 10^3 cells/well (100 μL) were used for cell cytotoxicity and cell proliferation assays, respectively. All peptides (10 μL, at final concentrations ranging from 0.05–100 μM) and drugs, which included cilengitide, octreotide and sunitinib (at final concentrations ranging from 0.00001–100 μM), were used in both assays. Triton X-100 (0.1% (v/v); 10 μL) was used as a positive control. Cells were treated with fresh media the day after plating, before the addition of peptides, followed by a subsequent 2-h and 48-h incubation for cell cytotoxicity and cell proliferation, respectively. After different incubation periods, 3-(4, 5-dimethylthiazolyl-2)-2,5-diphenyltetrazolium bromide (MTT) (10 μL; 5 mg/mL in PBS) was added, and cells were incubated for a further 4 h. The supernatant was then removed and 100 μL DMSO added to solubilize formazan salts. Experiments were performed in triplicate. Cell numbers were recorded at 600 nm. All data represent average mean ± SD.

MCF-7 = test: cells
Protocol: as §1, §2

PC3 = test: cells
Protocol: as §1, §2

HT-29 = test: cells
Protocol: as §1, §2

HUVEC migration = test: VEGF-mediated HUVEC transwell migration assay; format: cell-based, human; conditions: transwell, 0.3 nM VEGF in bottom chamber, normalized to VEGF control = 100% migration, n ≥ 3; read-out: concentration giving 50% inhibition of HUVEC migration
Protocol: Figure 5 Cell migration on VEGF-mediated HUVECs. The percentage of HUVEC migration was analyzed using Prism Version 6 (GraphPad). (A–T) VEGF was used as a positive control with 100% HUVEC migration. All peptides were tested at concentrations ranging from 0.001–50 μM except for cilengitide and octreotide, which were tested in 10-fold dilutions from 10 μM. Peptides were added in the presence of 0.3 nM VEGF (bottom chamber). Data are shown as mean ± SD (n ≥ 3). Data were normalized to the mean VEGF control. P-values are represented as follows: ****p ≤ 0.0001, ***p ≤ 0.001, **p ≤ 0.01, and *p ≤ 0.05.
A cell migration assay was performed as described by Chan et al.[45] HUVECs between passages three and ten were used. Briefly, initial peptide concentrations of 10–500 μM were prepared for all peptides except SFTI-SST-01, MCo-SST-01, SFTI-SST-02, MCo-SST-02, SFTI-PEDF, MCo-PEDF (0.01–500 μM), cilengitide, octreotide, and MCoAA-02 (1 × 10^−7 M–100 μM). To the apical well, 100 μL of 1 × 10^5 cells/well were seeded and 600 μL of medium supplemented with or without 0.3 nM VEGF (Sigma, catalogue no. V7259) was added to the basolateral well. The well containing cells with 0.1% FBS/EGM-2 basal medium was used as a negative control, and the well containing cells with 0.3 nM VEGF was used as a positive control. All peptides were stimulated with 0.3 nM VEGF. Experiments were done in triplicate. […]

[1] = Peptide stability assay in human serum; conditions: for stability in human serum over 24 h: RP-HPLC peak height at 215 nm
Protocol: Figure 6 Chorionallantoic membrane and stability assays. (A) Comparison of blood vessel count of the linear and grafted peptides. Error bars indicate ± SD (n ≥ 6). […] A one-way ANOVA with Dunnett’s post-test using a multiple comparison test was used for statistical analysis. […] All peptides were compared to 0.3 nM VEGF (highlighted in grey), which is represented as 100% blood vessel growth. […] VEGF was used as the positive control, and octreotide and cilengitide as the negative controls. All images were taken with an original magnification of x16 on an Olympus SZX12 dissecting microscope with a light box. DP capture and DP manager software packages were used during image acquisition. (C) This graph illustrates the percentage of peptide remaining over 24 h in the serum stability assay. […] All data are represented as mean ± SD and were recorded in triplicate. Peptides labeled with an asterisk (*) were tested using the same method except with an additional step – dissolving the centrifuged pellet with 8 M guanidinium chloride before RP-HPLC analysis.
The overall procedures used to assess peptide stability are based on those described previously by Chan et al.[18] and Ji et al.[19]. A peptide concentration of 300 μM was used, and time points taken at 0, 2, 4, 8, 16, and 24 h. The stability of sunitinib was also examined using this method, except an additional step was added after the final centrifugation step, whereby the pellet was dissolved in 8 M guanidine hydrochloride (300 μL) prior to analysis with RP-HPLC; this additional step was adapted from Ji et al.[19]. Supernantants were analyzed on an Agilent RP-HPLC using a linear 1%/min gradient of 0–50% solvent B with a 0.3 mL/min Phenomenex column. Peak height was used for integration of data at 215 nm and each experiment was performed in triplicate.

[2] = read-out: IC50 ± S.D., 48 hours, HUVEC, cell proliferation inhibition, MTT, 48-h incubation, 1.5 × 10^3 cells/well, triplicate, mean ± SD
[3] = read-out: IC50 ± S.D., 48 hours, MCF-7, cell proliferation inhibition, MTT, 48-h incubation, 1.5 × 10^3 cells/well, triplicate, mean ± SD
[4] = read-out: IC50 ± S.D., 48 hours, PC3, cell proliferation inhibition, MTT, 48-h incubation, 1.5 × 10^3 cells/well, triplicate, mean ± SD
[5] = read-out: IC50 ± S.D., 48 hours, HT-29, cell proliferation inhibition, MTT, 48-h incubation, 1.5 × 10^3 cells/well, triplicate, mean ± SD
[6] = human serum, 300 μM, 24 h, triplicate

Compound	IC50 (HUVEC; [2])	IC50 (MCF-7; [3])	IC50 (PC3; [4])	IC50 (HT-29; [5])	IC50 (HUVEC migration)	stability in human serum over 24 h [1, 6]	percentage remaining in human serum at 24 h, excess over sunitinib ([1]; human serum, 300 μM, 24 h, pellet dissolved in 8 M guanidine hydrochloride, RP-HPLC 215 nm, triplicate)	remaining at 24 h, 300 μM ([1]; human, serum)	IC50 (HUVEC; 4 h)	IC50 (MCF-7; 4 h)	IC50 (PC3; 4 h)	IC50 (HT-29; 4 h)
CC[C@H](C)[C@@H]1NC(=O)[C@@H]2CSSC[C@@H]3NC(=O)[C@H](C(C)C)NC(=O)CNC(=O)CNC(=O)[C@H](CC(=O)O)NC(=O)[C@H](CO)NC(=O)CNC(=O)[C@H](CO)NC(=O)CNC(=O)[C@@H]4CSSC[C@H](NC(=O)[C@H](CC(=O)O)NC(=O)[C@H](CO)NC(=O)[C@H](CC(=O)O)NC(=O)[C@H](CCCNC(=N)N)NC(=O)[C@H](CCCNC(=N)N)NC(=O)[C@H](CSSC[C@H](NC1=O)C(=O)N[C@@H](CCCNC(=N)N)C(=O)N[C@@H](Cc1ccc(O)cc1)C(=O)N[C@H](Cc1c[nH]c5ccccc15)C(=O)N[C@@H](CCCCN)C(=O)N[C@@H](C(C)C)C(=O)N4)NC(=O)[C@H](CCCCN)NC(=O)[C@H](CCCCN)NC(=O)[C@H](CC(C)C)NC(=O)[C@H]([C@@H](C)CC)NC(=O)[C@H](CCCCN)NC(=O)[C@@H]1CCCN1C3=O)C(=O)N1CCC[C@H]1C(=O)NCC(=O)N[C@@H](C)C(=O)N2 [MCo-SST-01] (cyclo(ACICRY[dW]KVCGSGSDGGVCPKILKKCRRDSDCPG); disulfide 2-19, 4-26, 10-32 (inferred); ring closure inferred)	17.12 ± 0.05 µM	> 100 µM	85.44 ± 0.08 µM	74.13 ± 0.07 µM	0.005 µM	–	–	–	–	–	–	–
CC[C@H](C)[C@@H]1NC(=O)[C@@H]2CSSC[C@@H]3NC(=O)CNC(=O)[C@H](Cc4ccccc4)NC(=O)[C@@H]4CCCN4C(=O)[C@H](CCC(N)=O)NC(=O)[C@H](CC(N)=O)NC(=O)[C@H](CC(C)C)NC(=O)[C@H](Cc4c[nH]cn4)NC(=O)[C@H](Cc4ccc(O)cc4)NC(=O)CNC(=O)[C@@H]4CSSC[C@H](NC(=O)[C@H](CC(=O)O)NC(=O)[C@H](CO)NC(=O)[C@H](CC(=O)O)NC(=O)[C@H](CCCNC(=N)N)NC(=O)[C@H](CCCNC(=N)N)NC(=O)[C@H](CSSC[C@H](NC1=O)C(=O)N[C@@H](CCCNC(=N)N)C(=O)N[C@@H](Cc1ccc(O)cc1)C(=O)N[C@H](Cc1c[nH]c5ccccc15)C(=O)N[C@@H](CCCCN)C(=O)N[C@@H](C(C)C)C(=O)N4)NC(=O)[C@H](CCCCN)NC(=O)[C@H](CCCCN)NC(=O)[C@H](CC(C)C)NC(=O)[C@H]([C@@H](C)CC)NC(=O)[C@H](CCCCN)NC(=O)[C@@H]1CCCN1C3=O)C(=O)N1CCC[C@H]1C(=O)NCC(=O)N[C@@H](C)C(=O)N2 [MCoAA-02] (cyclo(ACICRY[dW]KVCGYHLNQPFGCPKILKKCRRDSDCPG); disulfide 2-20, 4-27, 10-33)	27.06 ± 0.06 µM	> 100 µM	35.44 ± 0.13 µM	19.75 ± 0.07 µM	–	stable	approximately 20%	> 75%	–	–	–	–
CC[C@H](C)[C@@H]1NC(=O)[C@@H]2CCCN2C(=O)[C@@H]2CCCN2C(=O)[C@H]([C@@H](C)CC)NC(=O)[C@H](CO)NC(=O)[C@H](CCCCN)NC(=O)[C@H]([C@@H](C)O)NC(=O)[C@@H]2CSSC[C@H](NC1=O)C(=O)N[C@@H](CCCNC(=N)N)C(=O)N[C@@H](Cc1ccccc1)C(=O)N[C@H](Cc1c[nH]c3ccccc13)C(=O)N[C@@H](CCCCN)C(=O)N[C@@H]([C@@H](C)O)C(=O)N[C@@H](Cc1c[nH]c3ccccc13)C(=O)N2 [SFTI-SST-02] (cyclo(CRF[dW]KTWCTKSIPPI); disulfide 1-8)	> 100 µM	55.13 ± 0.07 µM	> 100 µM	43.29 ± 0.04 µM	–	–	–	–	–	–	–	–
CC[C@H](C)[C@@H]1NC(=O)[C@H](CCCNC(=N)N)NC(=O)[C@H](CCCNC(=N)N)NC(=O)[C@H](CCCNC(=N)N)NC(=O)[C@H](CCCCN)NC(=O)[C@H](CCCNC(=N)N)NC(=O)[C@H](CCCNC(=N)N)NC(=O)[C@@H]2CSSC[C@H](NC1=O)C(=O)N[C@@H](Cc1ccccc1)C(=O)N1CCC[C@H]1C(=O)N[C@@H](CC(=O)O)C(=O)NCC(=O)N[C@@H](CCCNC(=N)N)C(=O)N2 [SFTI-polyR-L1] (cyclo(CFPDGRCRRKRRRI); disulfide 1-7)	> 100 µM	28.72 ± 0.15 µM	> 100 µM	82.27 ± 0.13 µM	–	–	–	–	–	–	–	–
CC[C@H](C)[C@@H]1NC(=O)[C@@H]2CCCN2C(=O)[C@@H]2CCCN2C(=O)[C@H]([C@@H](C)CC)NC(=O)[C@H](CO)NC(=O)[C@H](CCCCN)NC(=O)[C@H]([C@@H](C)O)NC(=O)[C@@H]2CSSC[C@H](NC1=O)C(=O)N[C@@H](CCCNC(=N)N)C(=O)N[C@@H](CCCNC(=N)N)C(=O)N[C@@H](CCCCN)C(=O)N[C@@H](CCCNC(=N)N)C(=O)N[C@@H](CCCNC(=N)N)C(=O)N[C@@H](CCCNC(=N)N)C(=O)N2 [SFTI-polyR-L2] (cyclo(CRRKRRRCTKSIPPI); disulfide 1-8)	> 100 µM	41.84 ± 0.07 µM	> 100 µM	> 100 µM	–	–	–	–	–	–	–	–
CC(C)[C@H](NC(=O)[C@H](CCCCN)NC(=O)[C@@H](Cc1c[nH]c2ccccc12)NC(=O)[C@@H](N)Cc1ccc(O)cc1)C(=O)O [SST-01, reference compound] (H-Y[dW]KV-OH; N-terminus assumed)	–	–	–	–	–	more stable than PEDF	–	–	57.54 ± 0.04 µM	> 100 µM	> 100 µM	> 100 µM
C[C@@H](O)[C@H](NC(=O)[C@H](CCCCN)NC(=O)[C@@H](Cc1c[nH]c2ccccc12)NC(=O)[C@H](Cc1ccccc1)NC(=O)[C@@H](N)CCCNC(=N)N)C(=O)N[C@@H](Cc1c[nH]c2ccccc12)C(=O)O [SST-02, reference compound] (H-RF[dW]KTW-OH)	–	–	–	–	–	–	–	–	> 100 µM	> 100 µM	> 100 µM	> 100 µM
YHLNQPF [PEDF, reference compound]	19.4 ± 0.08 µM	> 100 µM	> 100 µM	> 100 µM	–	–	–	–	–	–	–	–
